The results in this text go back to PubChem BioAssay AID330 (DTP/NCI, 2004).

Where “and” joins values, the source holds several entries; their conditions need not be identical. Equal values may be shown once. Inconclusive results and toxic doses are left out. Square brackets hold non-standard residues; d marks the D form. Peptide text beside a SMILES is read from it. ξ: configuration not given here. ξhCys = NC(CCS)C(=O)O

The experiment has as its system P388 leukemia ip, CD2F1 mice, survival T/C. Description: NCI In Vivo Anticancer Drug Screen. Data for tumor model P388 Leukemia (intraperitoneal) in CD2F1 (CDF1) mice. Particulars: endpoint: median survival time, higher = longer survival. The method, boiled down:
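Mice carrying the transplanted tumor received test compound or vehicle. Survival was recorded in each group, and the value is the treated-group measurement divided by that of the vehicle-treated control group.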

Setting [1] is: dose: 100.0 mg/kg/injection, schedule: Q01DX001 (ip), vehicle: saline with Tween-80.
Setting [2] is: dose: 200.0 mg/kg/injection, schedule: Q01DX001 (ip), vehicle: saline with Tween-80.
Setting [3] is: dose: 25.0 mg/kg/injection, schedule: Q01DX009 (ip), vehicle: saline with Tween-80.
The mark [4] stands for this setting: dose: 50.0 mg/kg/injection, schedule: Q01DX009 (ip), vehicle: saline with Tween-80.
[5] abbreviates: dose: 50.0 mg/kg/injection, schedule: Q01DX009 (ip), vehicle: Klucel (hydroxypropylcellulose) (HPC).
Where [6] appears, read: dose: 100.0 mg/kg/injection, schedule: Q01DX009 (ip), vehicle: Klucel (hydroxypropylcellulose) (HPC).
[7] abbreviates: dose: 200.0 mg/kg/injection, schedule: Q01DX009 (ip), vehicle: Klucel (hydroxypropylcellulose) (HPC).
Where [8] appears, read: dose: 30.0 mg/kg/injection, schedule: Q01DX005 (ip), vehicle: saline with Tween-80.
Where [9] appears, read: dose: 60.0 mg/kg/injection, schedule: Q01DX005 (ip), vehicle: saline with Tween-80.
Where [10] appears, read: dose: 60.0 mg/kg/injection, schedule: Q01DX005 (ip), vehicle: Klucel (hydroxypropylcellulose) (HPC).
The mark [11] stands for this setting: dose: 120.0 mg/kg/injection, schedule: Q01DX005 (ip), vehicle: Klucel (hydroxypropylcellulose) (HPC).
[12] abbreviates: dose: 240.0 mg/kg/injection, schedule: Q01DX005 (ip), vehicle: Klucel (hydroxypropylcellulose) (HPC).
[13] abbreviates: dose: 50.0 mg/kg/injection, schedule: Q01DX005 (ip), vehicle: Klucel (hydroxypropylcellulose) (HPC).
Setting [14] is: dose: 100.0 mg/kg/injection, schedule: Q01DX005 (ip), vehicle: Klucel (hydroxypropylcellulose) (HPC).
Setting [15] is: dose: 200.0 mg/kg/injection, schedule: Q01DX005 (ip), vehicle: Klucel (hydroxypropylcellulose) (HPC).
[16] abbreviates: dose: 50.0 mg/kg/injection, schedule: Q01DX001 (ip), vehicle: saline with Tween-80.
Setting [17] is: dose: 120.0 mg/kg/injection, schedule: Q01DX005 (ip), vehicle: saline with Tween-80.
The mark [18] stands for this setting: dose: 240.0 mg/kg/injection, schedule: Q01DX005 (ip), vehicle: saline with Tween-80.
The mark [19] stands for this setting: dose: 50.0 mg/kg/injection, schedule: Q01DX005 (ip), vehicle: saline with Tween-80.
Setting [20] is: dose: 100.0 mg/kg/injection, schedule: Q01DX005 (ip), vehicle: saline with Tween-80.
[21] abbreviates: dose: 200.0 mg/kg/injection, schedule: Q01DX005 (ip), vehicle: saline with Tween-80.
Where [22] appears, read: dose: 100.0 mg/kg/injection, schedule: Q04DX003 (ip), vehicle: saline with Tween-80.
Setting [23] is: dose: 400.0 mg/kg/injection, schedule: Q04DX003 (ip), vehicle: saline with Tween-80.
The mark [24] stands for this setting: dose: 100.0 mg/kg/injection, schedule: Q01DX009 (ip), vehicle: saline with Tween-80.
The mark [25] stands for this setting: dose: 200.0 mg/kg/injection, schedule: Q01DX009 (ip), vehicle: saline with Tween-80.

In the case of `c1cc[n+](-[b-]2ccc3ccccc3c2)cc1`, the T/C was 94 % of control under setting [1]; 108 % of control under setting [2]; 99 % of control (dose: 400.0 mg/kg/injection, schedule: Q01DX001 (ip), vehicle: saline with Tween-80).

As for `CN1CCC(=C(C#N)C#N)CC1`, the T/C is, setting by setting: under setting [3], 120 % of control; under setting [4], 115 % of control.

For the molecule `CCN1c2ccccc2Sc2cc(C=O)ccc21`, the T/C reads like this: under setting [5], 91 % of control; under setting [6], 107 % of control; under setting [7], 101 % of control.

With `O=C(NCc1ccc(S(=O)(=O)F)cc1)Oc1ccc([N+](=O)[O-])cc1`, the T/C runs as follows: (dose: 7.5 mg/kg/injection, schedule: Q01DX005 (ip), vehicle: saline with Tween-80) 102 % of control; (dose: 15.0 mg/kg/injection, schedule: Q01DX005 (ip), vehicle: saline with Tween-80) 96 % of control; under setting [8], 99 % of control; under setting [9], 99 % of control and 112 % of control.

As for `CC1(C)Nc2ccccc2C(c2ccccc2)=NC1=O`, the T/C was 101 % of control and 102 % of control under setting [10]; 105 % of control and 98 % of control under setting [11]; 104 % of control and 91 % of control under setting [12].

Turning to `O=C1OC2(C=C(O)C1=O)CCCCC2`, the T/C is 106 % of control under setting [10], 107 % of control under setting [11] and 116 % of control under setting [12].

Consider `Cc1oc2ccccc2c(=O)c1CN1CCOCC1`, for which the T/C is, setting by setting: (dose: 60.0 mg/kg/injection, schedule: Q01DX005 (ip), vehicle: saline) 101 % of control; (dose: 120.0 mg/kg/injection, schedule: Q01DX005 (ip), vehicle: saline) 103 % of control.

On to `Cc1ccc(NCCN(C)CC(C)O)c2c(=O)c3ccc(Cl)cc3sc12` (centres undefined), for which the T/C was 102 % of control under setting [13], 101 % of control under setting [14] and 95 % of control under setting [15].

On to `COC1(OC)C2(Cl)C(Cl)=C(Cl)C1(Cl)C1C3CC=CC(CC12)S3` (centres undefined), for which the T/C is 102 % of control (dose: 100.0 mg/kg/injection, schedule: Q04DX002 (ip), vehicle: saline with Tween-80); 100 % of control (dose: 200.0 mg/kg/injection, schedule: Q04DX002 (ip), vehicle: saline with Tween-80); 99 % of control (dose: 400.0 mg/kg/injection, schedule: Q04DX002 (ip), vehicle: saline with Tween-80).

Regarding `C/C(=N\NC(=S)N1CCN(c2ccccn2)CC1)c1ccccn1`, the T/C runs as follows: (dose: 12.5 mg/kg/injection, schedule: Q01DX005 (ip), vehicle: water) 103 % of control; (dose: 25.0 mg/kg/injection, schedule: Q01DX005 (ip), vehicle: water) 108 % of control.

For the molecule `Cc1ccc2c(c1)nc(-c1ccccn1)n2CCc1ccncc1`, the T/C runs as follows: under setting [16], 95 % of control; under setting [1], 96 % of control; under setting [2], 101 % of control.

Take `O=C1C(Br)=CC2C1C1C=CC2(Br)C1=O` (centres undefined): the T/C under setting [8] is 105 % of control and 107 % of control; the T/C under setting [9] was 111 % of control and 112 % of control and 118 % of control; the T/C under setting [17] is 101 % of control and 111 % of control and 113 % of control; the T/C under setting [18] was 120 % of control.

Consider `CC1=C(C)C(=O)C2=C(OCCCO2)C1=O`, for which the T/C was 98 % of control (dose: 15.0 mg/kg/injection, schedule: Q01DX005 (ip), vehicle: Klucel (hydroxypropylcellulose) (HPC)); 96 % of control (dose: 30.0 mg/kg/injection, schedule: Q01DX005 (ip), vehicle: Klucel (hydroxypropylcellulose) (HPC)); 98 % of control under setting [10].

Regarding `CC1(C)c2ccccc2C(=O)c2ccccc21`, the T/C runs as follows: under setting [19], 103 % of control; under setting [20], 100 % of control; under setting [21], 103 % of control.

For `S=c1nc(N2CCOCC2)n(/C=C/c2ccccc2)c(=S)n1C(=N/C=C/c1ccccc1)N1CCOCC1`, the T/C (dose: 25.0 mg/kg/injection, schedule: Q04DX003 (ip), vehicle: saline with Tween-80) was 113 % of control; the T/C (dose: 50.0 mg/kg/injection, schedule: Q04DX003 (ip), vehicle: saline with Tween-80) was 89 % of control; the T/C under setting [22] is 91 % of control and 97 % of control; the T/C under setting [23] was 87 % of control.

As for `CC1CC(C)(C)CC2(C1)OCC(CCl)O2` (centres undefined), the T/C runs as follows: (dose: 25.0 mg/kg/injection, schedule: Q01DX001 (ip), vehicle: saline with Tween-80) 109 % of control; under setting [16], 104 % of control; under setting [1], 109 % of control.

Regarding `CN(C)c1ccc(/C=N/NC(=O)CNC(=O)n2ccnc2)cc1`, the T/C under setting [19] is 99 % of control, the T/C under setting [20] was 94 % of control and the T/C under setting [21] is 94 % of control.

For `Cc1nc2ccc(Cl)cn2c1[N+](=O)[O-]`, the T/C was 96 % of control under setting [5], 95 % of control under setting [6] and 96 % of control under setting [7].

On to `CCOC(=O)C(Cc1ccc(O)cc1)Nc1nc2ccccc2o1` (centres undefined), for which the T/C is, setting by setting: under setting [4], 95 % of control; under setting [24], 105 % of control; under setting [25], 103 % of control; (dose: 400.0 mg/kg/injection, schedule: Q01DX009 (ip), vehicle: saline with Tween-80) 96 % of control.

As to `CCCOP(=S)(N1CC1(C)C)N1CC1(C)C` (centres undefined), the T/C is, setting by setting: (dose: 12.5 mg/kg/injection, schedule: Q01DX009 (ip), vehicle: saline with Tween-80) 104 % of control; under setting [3], 113 % of control; (dose: 150.0 mg/kg/injection, schedule: Q01DX009 (ip), vehicle: saline with Tween-80) 155 % of control.

On to `CCSCCC(NC(=O)CN)C(=O)O` (centres undefined) (H-Gly-[ξhCys](Et)-OH), for which the T/C reads like this: (dose: 50.0 mg/kg/injection, schedule: Q01DX009 (ip), vehicle: saline) 112 % of control; (dose: 100.0 mg/kg/injection, schedule: Q01DX009 (ip), vehicle: saline) 94 % of control.

As for `CS/C(=N\N=C(/C)c1ccccn1)N1CCN(c2ccccn2)CC1`, the T/C by setting is: under setting [22], 98 % of control; (dose: 200.0 mg/kg/injection, schedule: Q04DX003 (ip), vehicle: saline with Tween-80) 99 % of control; under setting [23], 96 % of control.

As to `COC1=C(OC)C(=O)C(SCCCCCCC2CCCCC2)=C(C)C1=O`, the T/C was 110 % of control (dose: 60.0 mg/kg/injection, schedule: Q01DX005 (ip), vehicle: saline + Tween-80 + alcohol) and 115 % of control (dose: 120.0 mg/kg/injection, schedule: Q01DX005 (ip), vehicle: saline + Tween-80 + alcohol).

As for `CC(C)C(=O)CCCN1C(=O)c2ccccc2C1=O`, the T/C was 94 % of control (dose: 12.5 mg/kg/injection, schedule: Q01DX009 (ip), vehicle: distilled water + Tween-80); 86 % of control (dose: 25.0 mg/kg/injection, schedule: Q01DX009 (ip), vehicle: distilled water + Tween-80); 86 % of control (dose: 50.0 mg/kg/injection, schedule: Q01DX009 (ip), vehicle: distilled water + Tween-80); 100 % of control (dose: 100.0 mg/kg/injection, schedule: Q01DX009 (ip), vehicle: distilled water + Tween-80).

As for `CCC1(c2ccccc2)C(=O)NC(=O)N(CN2CCOCC2)C1=O` (centres undefined), the T/C was 100 % of control under setting [10], 100 % of control under setting [11] and 98 % of control under setting [12].

On to `COc1ccc(/C=C/C(=O)c2ccccc2)cc1OC`, for which the T/C is 103 % of control under setting [4], 114 % of control under setting [24] and 100 % of control under setting [25].

In the case of `CCCCC(NC(=O)C(Cl)Cl)C(=O)O` (centres undefined), the T/C is 94 % of control under setting [13], 98 % of control under setting [14] and 88 % of control under setting [15].

`CCC[CH2][Sn]([CH2]CCC)([O][P+](=O)C[Si](C)(C)c1ccccc1)[O][P+](=O)C[Si](C)(C)c1ccccc1` (centres undefined): the T/C was 108 % of control under setting [9], 115 % of control under setting [17] and 122 % of control under setting [18].
